Experiments:
Assay type in all cases: in vivo
[1] = tested on: Avena fatua; test: Herbicidal post-emergence action (D), 320 g/ha; conditions: ca. 3 weeks
[2] = tested on: Stellaria media (STEME); test: Herbicidal post-emergence action (D), 320 g/ha; conditions: ca. 3 weeks
How it was run: (§1)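 Seedlings reaching the single-leaf stage 2 to 3 weeks after sowing in sandy loam received a foliar spray of the formulated compound (WP or EC, 0.5% additive, 600 l water/ha). Damage is rated visually after about 3 weeks in the greenhouse as percent effect relative to untreated plants.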

[3] = tested on: Stellaria media (STEME); test: Herbicidal pre-emergence action (C), 320 g/ha; conditions: visual grading after ca. 3 weeks vs untreated controls, 100% = plants have died off, 0% = as control plants
How it was run: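 Greenhouse pre-emergence trial with compounds sprayed onto soil above sown seeds in sandy loam (aqueous WP or EC, 0.5% additive, 600 l water/ha); effect scored by eye at roughly 3 weeks as percent damage versus controls.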

[4] = tested on: Viola tricolor (VIOTR); test: Herbicidal post-emergence action (D), 320 g/ha; conditions: ca. 3 weeks
How it was run: as §1

SMILES: Cc1cc2scnc2nc1-c1ccsc1C [Example I-194]
- herbicidal effect AVEFA [1]: 80%

SMILES: Fc1ccccc1-c1ccc2scnc2n1 [Example I-036, 5-(2-fluorophenyl)thiazolo[4,5-b]pyridine]
- herbicidal effect STEME [2]: 90%
- STEME, herbicidal effect in percent (%) [3]: 90%

SMILES: Fc1ccccc1-c1nc2ncsc2cc1Cl [Example I-017]
- herbicidal effect VIOTR [4]: 90%
